One data set concerns Cdk2. The arrangement: method as in Jorda et al. [23]. Conditions: ref Jorda et al. [23]; cited from earlier work.
A further data set has as its system Cdk5. The arrangement: method as in Jorda et al. [23]. Conditions: ref Jorda et al. [23]; cited from earlier work.
The test system of another data set is HMEC-1 cells. In words: Microscopy / propidium iodide staining for cell death at proliferation-assay cell density. Type of data set: cell-based. Conditions: 30 µM, 72 h. How it is done:
A: HMEC-1 cells were seeded in the same density as for the proliferation assay and treated with the respective compound at 30 µM for 72 h to test whether reduced cell numbers in the proliferation assay are due to inhibition of proliferation or to excessive cell death. No increase of detached, obviously dead or propidium iodide positive cells was detected. B and C: Confluent layers of HUVECs were scratched and the cells were allowed to migrate for 16 h in the presence or absence of 10 µM of the compounds. B: The columns indicate the area re-covered by migrating cells (n = 3, mean ± SEM, * p<0.05, One Way ANOVA, Dunnett). C: Scratches at endpoint, representative images taken out of three experiments.
HMEC-1 were seeded into 96-well-plates (1,500 cells/well). After 24 h, the cells were stimulated with the indicated compounds. At the same time point, cells in a reference plate were stained with crystal violet, serving as initial cell number. After 72 hours of stimulation, cells were fixed and stained with crystal-violet solution for 10 minutes, washed with water, and air dried. Crystal violet was eluted with dissolving buffer and absorbance was measured at 550 nm (Tecan Sunrise Absorbance reader, TECAN, Crailsheim, Germany). […] Phase contrast and fluorescence images were obtained with an inverted Nikon microscope (Ti, Nikon, Düsseldorf, Germany) equipped with a 10x objective.

In a further data set the target is T1, Cdk1/CycB (Homo sapiens, UniProt P06493).
T1 construct: purchased ProQinase (Freiburg, Germany)
The data set is described as follows: In vitro kinase profile (ProQinase). The class given is biochemical. How it is done: (§1) Therefore, it was of interest to see which kinases, especially which Cdks, are inhibited by those compounds. The kinase profiling was performed by ProQinase (Freiburg, Germany) for LGR 1406 and 1407. For LGR 1404 kinase profiling has recently been published previously. LGR 1406 and 1407 were tested for their IC50 in a panel of 24 kinases, including the Cdk1, Cdk2, Cdk4, Cdk5, Cdk6, Cdk7 and Cdk9. The other kinases tested were PTK6, EGFR, FAK, FGFR1 and FGFR2, NLK, PAK4, VEGFR1 and VEGFR2, MEK1, ROCK1, RAF1, ALK, RSK3, AURKA, and AMPKα1.

In another data set the target is T2, Cdk2/CycA (Homo sapiens, UniProt P24941).
T2 construct: purchased ProQinase (Freiburg, Germany)
The data set is described as follows: In vitro kinase profile (ProQinase). Type of data set: biochemical. How it is done:
as §1

A further data set deals with T3, Cdk4/CycD1 (Homo sapiens, UniProt P11802).
T3 construct: purchased ProQinase (Freiburg, Germany)
The data set is described as follows: In vitro kinase profile (ProQinase). The class given is biochemical. How it is done:
as §1

Another data set concerns the target T4, FAK (Homo sapiens, UniProt Q05397).
T4 construct: purchased ProQinase (Freiburg, Germany)
In words: In vitro kinase profile (ProQinase). Type of data set: biochemical. How it is done:
as §1

In the next data set the target is T5, PAK4 (Homo sapiens, UniProt O96013).
T5 construct: purchased ProQinase (Freiburg, Germany)
In words: In vitro kinase profile (ProQinase). Type of data set: biochemical. How it is done:
as §1

A further data set addresses T6, RSK3 (Homo sapiens, UniProt Q15349).
T6 construct: purchased ProQinase (Freiburg, Germany)
In words: In vitro kinase profile (ProQinase). The class given is biochemical. How it is done: as §1

pIC50: −log10 of the molar value.

T1 sequence (P06493 whole entry): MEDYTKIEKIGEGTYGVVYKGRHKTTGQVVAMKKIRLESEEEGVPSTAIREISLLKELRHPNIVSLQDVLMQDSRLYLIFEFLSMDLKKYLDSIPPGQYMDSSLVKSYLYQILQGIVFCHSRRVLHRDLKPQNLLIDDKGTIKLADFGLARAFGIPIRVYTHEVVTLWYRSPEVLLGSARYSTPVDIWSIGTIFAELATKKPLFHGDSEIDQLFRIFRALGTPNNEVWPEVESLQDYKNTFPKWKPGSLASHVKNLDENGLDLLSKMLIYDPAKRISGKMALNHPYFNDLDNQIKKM
T1 sequence (P14635 whole entry partner): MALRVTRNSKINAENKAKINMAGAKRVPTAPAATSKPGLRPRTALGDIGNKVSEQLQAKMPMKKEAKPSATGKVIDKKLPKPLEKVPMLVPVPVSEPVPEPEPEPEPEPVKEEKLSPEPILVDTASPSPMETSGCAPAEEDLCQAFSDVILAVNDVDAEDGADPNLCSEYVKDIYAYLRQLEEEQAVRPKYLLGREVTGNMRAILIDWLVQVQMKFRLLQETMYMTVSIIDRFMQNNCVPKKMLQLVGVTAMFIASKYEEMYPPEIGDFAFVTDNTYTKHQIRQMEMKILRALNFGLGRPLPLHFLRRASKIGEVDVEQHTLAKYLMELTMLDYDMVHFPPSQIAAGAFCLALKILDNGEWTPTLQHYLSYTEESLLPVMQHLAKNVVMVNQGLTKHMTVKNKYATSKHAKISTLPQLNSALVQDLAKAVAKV
T3 sequence (P11802 whole entry): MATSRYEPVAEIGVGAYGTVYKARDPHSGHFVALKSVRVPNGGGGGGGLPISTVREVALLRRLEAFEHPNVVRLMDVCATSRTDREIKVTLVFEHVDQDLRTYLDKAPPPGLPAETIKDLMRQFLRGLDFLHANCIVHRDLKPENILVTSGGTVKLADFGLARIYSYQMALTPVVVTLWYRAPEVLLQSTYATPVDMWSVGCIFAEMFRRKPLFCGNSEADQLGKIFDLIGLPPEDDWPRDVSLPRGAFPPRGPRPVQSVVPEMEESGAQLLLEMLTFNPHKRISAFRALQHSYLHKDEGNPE
T3 sequence (P24385 whole entry partner): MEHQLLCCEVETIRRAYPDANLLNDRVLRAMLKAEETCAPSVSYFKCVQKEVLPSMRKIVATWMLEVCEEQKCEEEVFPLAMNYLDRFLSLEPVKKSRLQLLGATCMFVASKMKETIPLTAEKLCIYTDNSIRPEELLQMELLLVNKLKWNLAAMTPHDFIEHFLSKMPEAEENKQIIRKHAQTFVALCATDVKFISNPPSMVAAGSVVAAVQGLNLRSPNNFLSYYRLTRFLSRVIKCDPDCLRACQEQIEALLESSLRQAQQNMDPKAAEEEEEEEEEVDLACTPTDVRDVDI
T4 sequence (Q05397 whole entry): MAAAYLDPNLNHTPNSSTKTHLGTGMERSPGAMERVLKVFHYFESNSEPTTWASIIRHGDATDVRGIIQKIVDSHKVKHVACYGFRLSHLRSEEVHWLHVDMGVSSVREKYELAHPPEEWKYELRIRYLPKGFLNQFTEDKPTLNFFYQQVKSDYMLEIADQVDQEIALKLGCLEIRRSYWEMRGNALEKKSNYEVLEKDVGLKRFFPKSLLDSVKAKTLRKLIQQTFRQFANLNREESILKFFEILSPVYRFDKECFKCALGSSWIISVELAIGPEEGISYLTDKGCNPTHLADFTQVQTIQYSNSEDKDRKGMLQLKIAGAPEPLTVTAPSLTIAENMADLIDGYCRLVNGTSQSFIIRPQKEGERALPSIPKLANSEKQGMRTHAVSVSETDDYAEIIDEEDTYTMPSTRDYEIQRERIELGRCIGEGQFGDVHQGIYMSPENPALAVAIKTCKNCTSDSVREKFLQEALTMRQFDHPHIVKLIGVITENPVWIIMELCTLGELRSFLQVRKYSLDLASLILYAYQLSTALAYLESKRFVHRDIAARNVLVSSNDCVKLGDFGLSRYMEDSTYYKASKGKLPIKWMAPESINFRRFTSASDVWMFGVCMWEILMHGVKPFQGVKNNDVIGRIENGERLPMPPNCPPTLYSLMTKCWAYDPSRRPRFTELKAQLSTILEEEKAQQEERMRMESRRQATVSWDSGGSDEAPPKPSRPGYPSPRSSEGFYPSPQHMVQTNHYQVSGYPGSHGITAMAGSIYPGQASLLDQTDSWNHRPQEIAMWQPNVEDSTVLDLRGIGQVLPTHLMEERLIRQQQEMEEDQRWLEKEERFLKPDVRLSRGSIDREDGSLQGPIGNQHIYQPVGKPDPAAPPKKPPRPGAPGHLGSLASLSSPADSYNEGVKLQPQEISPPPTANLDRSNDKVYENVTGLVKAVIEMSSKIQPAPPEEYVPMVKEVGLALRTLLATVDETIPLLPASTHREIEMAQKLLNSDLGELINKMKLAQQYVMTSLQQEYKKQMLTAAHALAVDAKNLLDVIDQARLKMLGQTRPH
T6 sequence (Q15349 whole entry): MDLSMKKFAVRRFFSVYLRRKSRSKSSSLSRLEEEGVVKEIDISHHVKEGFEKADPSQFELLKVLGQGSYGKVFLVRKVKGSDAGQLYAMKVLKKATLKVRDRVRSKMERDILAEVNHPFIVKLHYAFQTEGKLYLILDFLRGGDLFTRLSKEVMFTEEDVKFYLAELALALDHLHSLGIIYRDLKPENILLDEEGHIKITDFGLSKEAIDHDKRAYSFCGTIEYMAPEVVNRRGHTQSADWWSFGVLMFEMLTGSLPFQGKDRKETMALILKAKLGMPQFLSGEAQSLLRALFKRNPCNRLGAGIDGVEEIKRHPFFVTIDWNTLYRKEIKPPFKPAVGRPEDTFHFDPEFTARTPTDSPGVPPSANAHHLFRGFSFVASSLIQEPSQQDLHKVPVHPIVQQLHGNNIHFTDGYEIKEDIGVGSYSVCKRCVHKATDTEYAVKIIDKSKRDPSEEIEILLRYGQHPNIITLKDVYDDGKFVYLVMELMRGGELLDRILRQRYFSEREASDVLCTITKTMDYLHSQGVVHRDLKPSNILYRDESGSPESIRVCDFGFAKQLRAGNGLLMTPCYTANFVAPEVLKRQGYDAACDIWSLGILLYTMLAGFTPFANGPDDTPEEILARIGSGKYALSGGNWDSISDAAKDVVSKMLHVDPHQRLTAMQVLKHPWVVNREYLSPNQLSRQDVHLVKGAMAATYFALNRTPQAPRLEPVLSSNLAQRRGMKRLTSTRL
T5 sequence (O96013 whole entry): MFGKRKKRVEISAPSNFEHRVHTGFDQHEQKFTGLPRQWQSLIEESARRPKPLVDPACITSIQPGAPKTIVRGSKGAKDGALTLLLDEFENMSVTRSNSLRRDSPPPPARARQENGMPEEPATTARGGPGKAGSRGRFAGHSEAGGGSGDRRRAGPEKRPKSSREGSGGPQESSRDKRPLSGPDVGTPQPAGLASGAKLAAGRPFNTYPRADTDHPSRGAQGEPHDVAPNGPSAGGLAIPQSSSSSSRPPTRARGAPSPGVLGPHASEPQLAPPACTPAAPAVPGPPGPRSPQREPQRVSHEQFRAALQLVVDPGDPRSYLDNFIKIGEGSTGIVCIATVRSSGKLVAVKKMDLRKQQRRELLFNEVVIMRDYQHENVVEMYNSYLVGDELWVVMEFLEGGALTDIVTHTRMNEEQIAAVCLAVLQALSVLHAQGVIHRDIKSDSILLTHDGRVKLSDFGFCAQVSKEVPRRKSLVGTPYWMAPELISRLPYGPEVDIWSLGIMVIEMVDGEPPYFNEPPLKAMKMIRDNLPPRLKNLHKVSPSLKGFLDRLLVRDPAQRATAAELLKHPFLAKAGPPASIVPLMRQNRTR

For orientation: pIC50 means the negative decadic logarithm of the IC50, by convention in mol/L. `CC[C@H](CO)Nc1nc(NCc2ccccc2)c2n[nH]c(C(C)C)c2n1` [LGR 1404, 7-Benzylamino-5(R)-[(1-hydroxymethyl)propylamino]-3-isopropyl-1(2)H-pyrazolo[4,3-d]pyrimidine]: the pIC50 in the data set with Cdk2 was 6.66; in the data set on Cdk5, 6.03.
As to `CC(C)c1n[nH]c2c(NCc3ccccc3)nc(NC3CCCCC3N)nc12` (stereo not drawn) [LGR 1406, 5-[(2-E/Z-aminocyclohexyl)amino]-7-benzylamino-3-isopropyl-1(2)H-pyrazolo[4,3-d]pyrimidine], the “morphologically altered, dead or detached cells, loss of membrane integrity (propidium iodide)” value in the data set on HMEC-1 cells was “no increase of morphologically altered, dead or detached cells, and no loss of membrane integrity”. The negative-log IC50 (pIC50) was 5.49 on Cdk1/CycB; 6.00 against Cdk2/CycA; 4.82 at Cdk4/CycD1; more than 5.00 against FAK; more than 5.00 at PAK4; more than 5.00 on RSK3.
Take `CC(C)c1n[nH]c2c(NCc3ccccc3)nc(NC3CCC(N)CC3)nc12` (stereo not drawn) [LGR 1407, 5-[(4-E-aminocyclohexyl)amino]-7-benzylamino-3-isopropyl-1(2)H-pyrazolo[4,3-d]pyrimidine]: the pIC50 against Cdk1/CycB was 5.24; on Cdk2/CycA, 5.82; on Cdk4/CycD1 it was 4.18.

These data come from paper PMC3545992, “Trisubstituted Pyrazolopyrimidines as Novel Angiogenesis Inhibitors” (PLoS ONE, 2013).
